Results as given in patent US8445502B2, “Pharmaceutical formulations comprising salts of a protein kinase inhibitor and methods of using same” (Astex Pharmaceuticals, Inc., priority 2007, dated 2013).
Read-outs that look alike come from different tables or passages of the source.

What was measured:
A549 lung cancer cells = type: in vivo; details: Day 26, 10 mg/kg IP in sterile saline, qd×5×3 wk (vehicle 43)
Method: (§1) MP470 and MP470 HCl were tested against different tumor types in athymic nude mice as summarized below (Table 8). Various formulations and routes were evaluated. HT-29 colorectal cancer cells and SB-CL2 melanoma cells were implanted subcutaneously, while A549 lung cancer cells, MiaPaCa-2 pancreatic cancer cells, TT medullary thyroid cancer cells, and OVCAR-3 ovarian cancer cells were implanted […] in the hind flank of mice. All animals were allowed to develop medium-sized (80-125 mg) tumors, before initiation of dosing. Tumor volume and mouse bodyweight were followed over the course of the study.
A549 Lung Cancer Model—In 40 nude mice implanted intradermally with A549 lung cancer cells, animals were dosed with vehicle orally, MP470 in 100% corn oil orally, or 5-FU in sterile saline IP. […] […] While MP470 reduced tumor growth rates, treatment of these cells with 5-FU reduced the overall tumor growth rate per day further to 19.5 mm3/d on Day 26.
To determine whether MP470.HCl in combination with carboplatin increased the anti-tumor activity in xenograft tumors growing in vivo, the agents were administered alone and in combination and tumor growth was monitored. MP470.HCl (50 mg/kg) was combined with carboplatin (30 mg/kg) alone or carboplatin with taxol (20 mg/kg).

NCI-H647 NSCLC cells = assay: Sensitization of NSCLC cells to carboplatin; type: cell-based; details: NCI-H647, single agent
Method: (§2) The non-small cell lung cancer cell lines A549 and NCI-H647 were used for these experiments. […] The IC50 concentrations observed for carboplatin against both of these cell lines was consistent with this.
(§3) Two sub-IC50 doses of MP470.HCl were tested in combination with carboplatin to evaluate possible synergism between these agents and consequently a lower IC50 value for carboplatin in each of the cell lines.
(§4) MP470.HCl was able to dramatically decrease the IC50 of carboplatin in these cells.

A549 NSCLC cells = assay: Sensitization of NSCLC cells to carboplatin; type: cell-based; details: A549, single agent
Method: as §2, §3, §4

[1] = system: Rad51 in A549 non-small cell lung cancer cells; assay: Rad51 protein level by Western blot in cells; type: cell-based; details: 6.1 μM carboplatin, 24 hrs
Method: Rad51 protein levels were also determined in A549 non-small cell lung cancer cells using combinations with DNA damaging agents. Cells were treated for 24 hrs with 6.1 μM (IC30 of carboplatin alone) carboplatin in combination with 0.71 μM or 3.82 μM MP470.HCl. Protein lysates were isolated from treated and non-treated cells, separated by SDS-PAGE, and transferred to nitrocellulose. […] The increase in Rad51 due to carboplatin treatment was reduced by 26% when treated in combination with 0.71 μM MP470.HCl and by 42% with 3.82 μM MP470.HCl

DMS-114 SCLC cells = assay: Sensitization of SCLC cells to etoposide; type: cell-based; details: Homo sapiens; DMS-114, single agent
Method: (§5) Therefore, to determine if MP470 would increase sensitivity to etoposide treatment, SCLC cells were treated with the agents individually and in combination. […] Two sub-IC50 doses of MP470.HCl were tested in combination with etoposide to evaluate possible synergism and a resulting lower IC50 value for etoposide in each of the cell lines.

DMS-153 SCLC cells = assay: Sensitization of SCLC cells to etoposide; type: cell-based; details: Homo sapiens; DMS-153, single agent
Method: as §5

[2] = Solubility of MP470 and its salts (Table 2); type: physicochemical; details: water
[3] = system: OVCAR-3 ovarian cancer cells; assay: OVCAR-3 ovarian cancer tumor model in nude mice; type: in vivo
Method: as §1
OVCAR-3 Ovarian Cancer Model—Forty-two nude mice were implanted subcutaneously with OVCAR-3 ovarian carcinoma, the hydrochloride salt of MP470 (MP470.HCl) was formulated in 100% corn oil and delivered orally. MP470.HCl, cisplatin, and irinotecan were administered to animals alone or in combination. When administered alone, MP470.HCl was given qd at 100 or 200 mg/kg, irinotecan was given q3d at 20 mg/kg, and cisplatin was given q7d at 5 mg/kg. In combination studies, 100 mg/kg MP470.HCl was given qd and combined with 20 mg/kg irinotecan given q3d or 5 mg/kg cisplatin given q7d. One animal in the 200 mg/kg MP470.HCl group died on Day 1, while five animals in the MP470.HCl/cisplatin combination group died (one on Day 5, Day 6, Day 7, Day, 20, and Day 27). Treatment with each individual agent (200 mg/kg MP470.HCl, 46.2 mm3/d; 20 mg/kg irinotecan, 38.53 mm3/d; 5 mg/kg cisplatin, 33.8 mm3/d) reduced the tumor growth rate below that of vehicle-treated mice (78.04 mm3/d). […] In contrast, when MP470.HCl and cisplatin were used in combination, the tumor growth rate was reduced to 10.22 mm3/d. However, the 100 mg/kg dose of MP470.HCl in combination with cisplatin caused enhanced toxicity and most animals in this group died during the 21-day treatment period. The enhanced toxicity was related to the level of the dose used, so a subsequent study was conducted using half the dose, 50 mg/kg/day as described below.

[4] = rat, in vivo, po
Method: Twenty-four rats were placed into four groups each consisting of three animals per sex. The animals were weighed the day before dosing, as well as just prior to dosing.
After intravenous infusion of MP470.HCl at 5 mg/kg, average MP470 peak plasma concentrations of 454.3 ng/mL for males and 370.7 ng/mL for females were attained at 0.083 hours (5 minutes), the first sampling point postdose. After oral administration of non-micronized MP470.HCl, peak plasma concentrations of MP470 were attained at 0.5-12 hours for Group 2 (25 mg/kg) and 4-12 hours for Group 3 (100 mg/kg, suspension). The extent of systemic exposure of rats to MP470, characterized by AUCO-∞, was approximately 3.8-fold and 2.9-fold higher in females than in males for Groups 2 and 3, respectively. Average AUCO-∞ values were higher at 100 mg/kg than at 25 mg/kg and the increases in AUCO-∞ were greater than dose-proportional.
After oral administration of micronized MP470.HCl (Group 4), peak plasma concentrations of MP470 were attained at 4-12 hours. The extent of systemic exposure of rats to MP470, characterized by AUCO-∞, was approximately 3.4-fold higher in females than in males for Group 4. The extent of exposure of rats to MP470, characterized by AUCO-∞, was 1.7-fold (males) and 1.4-fold (females) higher for non-micronized MP470 HCl (Group 3) than for micronized MP470 HCl (Group 4).

[5] = system: γ-H2AX levels in OVCAR-3 (ovarian carcinoma) cells; assay: DNA damage by γ-H2AX levels; type: cell-based; details: single agent 10 μM; control 0.5% DMSO medium
Method: OVCAR-3 (ovarian carcinoma) cells were treated with MP470 (10 μM), MP470.HCl (10 μM), and/or topotecan (10 μM).

O=c1[nH]cc(F)c(=O)[nH]1 [5-FU, 5-fluorouracil, reference compound]
tumor growth rate (A549 lung cancer cells): 19.5 mm3/d

N.N.O=C([O-])C1(C(=O)[O-])CCC1.[Pt+2] [Carboplatin, reference compound]
IC50 (NCI-H647 NSCLC cells): 173 µM | IC50 (A549 NSCLC cells): 20.1 µM | increase of Rad51 levels over non-treatment levels [1]: 12 fold

COc1cc([C@@H]2c3cc4c(cc3[C@@H](O[C@@H]3O[C@@H]5CO[C@@H](C)O[C@H]5[C@H](O)[C@H]3O)[C@H]3COC(=O)[C@H]23)OCO4)cc(OC)c1O [Etoposide, reference compound]
IC50 (DMS-114 SCLC cells): 0.92 µM | IC50 (DMS-153 SCLC cells): 0.29 µM

S=C(NCc1ccc2c(c1)OCO2)N1CCN(c2ncnc3c2oc2ccccc23)CC1 [MP470 Esylate]
Solubility in water [2]: 5.89 µg/mL

N.N.[Cl][Pt][Cl] [cisplatin, reference compound]
tumor growth rate ([3]; 5 mg/kg q7d (vehicle 78.04)): 33.8 mm3/d

CCc1c2c(nc3ccc(OC(=O)N4CCC(N5CCCCC5)CC4)cc13)-c1cc3c(c(=O)n1C2)COC(=O)[C@]3(O)CC [irinotecan, reference compound]
tumor growth rate ([3]; 20 mg/kg q3d (vehicle 78.04)): 38.53 mm3/d

Cl.S=C(NCc1ccc2c(c1)OCO2)N1CCN(c2ncnc3c2oc2ccccc23)CC1 [micronized MP470.HCl]
AUC0-∞ in females relative to males ([4]; 100 mg/kg): approximately 3.4 fold | time of peak plasma concentration ([4]; 100 mg/kg): 4 to 12 h

Cl.S=C(NCc1ccc2c(c1)OCO2)N1CCN(c2ncnc3c2oc2ccccc23)CC1 [non-micronized MP470.HCl]
AUC0-∞ in females relative to males ([4]; 25 mg/kg): approximately 3.8 fold | time of peak plasma concentration ([4]; 25 mg/kg): 0.5 to 12 h | AUC0-∞ in females relative to males ([4]; 100 mg/kg): ~2.9 fold | time of peak plasma concentration ([4]; 100 mg/kg): 4 to 12 h

CC[C@@]1(O)C(=O)OCc2c1cc1n(c2=O)Cc2cc3c(CN(C)C)c(O)ccc3nc2-1 [topotecan, reference compound]
Increase in DNA damage (γ-H2AX) over control [5]: 65%
